In PubChem BioAssay AID330 (DTP/NCI, 2004):
Where “and” joins values, the source holds several entries; their conditions need not be identical. Equal values may be shown once. Toxic doses and inconclusive results are not listed.

System: P388 leukemia ip, CD2F1 mice, survival T/C
Experiment: NCI In Vivo Anticancer Drug Screen. Data for tumor model P388 Leukemia (intraperitoneal) in CD2F1 (CDF1) mice
Conditions: endpoint: median survival time, higher = longer survival
Method in brief: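 Mice carrying the transplanted tumor received test compound or vehicle. Survival was recorded in each group, and the value is the treated-group measurement divided by that of the vehicle-treated control group.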

[1] = dose: 50.0 mg/kg/injection, schedule: Q01DX009 (ip), vehicle: Klucel (hydroxypropylcellulose) (HPC)
[2] = dose: 100.0 mg/kg/injection, schedule: Q01DX009 (ip), vehicle: Klucel (hydroxypropylcellulose) (HPC)
[3] = dose: 200.0 mg/kg/injection, schedule: Q01DX009 (ip), vehicle: Klucel (hydroxypropylcellulose) (HPC)
[4] = dose: 25.0 mg/kg/injection, schedule: Q01DX009 (ip), vehicle: saline with Tween-80
[5] = dose: 50.0 mg/kg/injection, schedule: Q01DX009 (ip), vehicle: saline with Tween-80
[6] = dose: 25.0 mg/kg/injection, schedule: Q01DX009 (ip), vehicle: other
[7] = dose: 100.0 mg/kg/injection, schedule: Q01DX009 (ip), vehicle: other
[8] = dose: 100.0 mg/kg/injection, schedule: Q01DX009 (ip), vehicle: saline with Tween-80
[9] = dose: 100.0 mg/kg/injection, schedule: Q04DX003 (ip), vehicle: saline with Tween-80
[10] = dose: 200.0 mg/kg/injection, schedule: Q01DX009 (ip), vehicle: saline with Tween-80
[11] = dose: 200.0 mg/kg/injection, schedule: Q04DX003 (ip), vehicle: saline with Tween-80
[12] = dose: 400.0 mg/kg/injection, schedule: Q04DX003 (ip), vehicle: saline with Tween-80
[13] = dose: 12.5 mg/kg/injection, schedule: Q01DX009 (ip), vehicle: saline with Tween-80
[14] = dose: 60.0 mg/kg/injection, schedule: Q01DX005 (ip), vehicle: saline with Tween-80
[15] = dose: 120.0 mg/kg/injection, schedule: Q01DX005 (ip), vehicle: saline with Tween-80
[16] = dose: 240.0 mg/kg/injection, schedule: Q01DX005 (ip), vehicle: saline with Tween-80

In the case of `COC(=O)CN(CC(=O)OC)C1CC1N(CC(=O)OC)CC(=O)OC` (stereo not given), the T/C [1] is reported as 89 % of control, the T/C (dose: 100.0 mg/kg/injection, schedule: Q01DX001 (ip), vehicle: Klucel (hydroxypropylcellulose) (HPC)) is reported as 98 % of control and the T/C [2] is reported as 97 % of control. For the same compound, the T/C (dose: 200.0 mg/kg/injection, schedule: Q01DX001 (ip), vehicle: Klucel (hydroxypropylcellulose) (HPC)) was 102 % of control, the T/C [3] was 95 % of control and the T/C (dose: 400.0 mg/kg/injection, schedule: Q01DX001 (ip), vehicle: Klucel (hydroxypropylcellulose) (HPC)) was 89 % of control.

For `CCOC(=O)c1ccc2c(c1)CCC2`, the T/C (dose: 50.0 mg/kg/injection, schedule: Q01DX009 (ip), vehicle: acetone) was 104 % of control and the T/C (dose: 100.0 mg/kg/injection, schedule: Q01DX009 (ip), vehicle: acetone) was 104 % of control.

For `NC(CCl)=NC1CCCCC1`, the T/C (dose: 10.0 mg/kg/injection, schedule: Q04DX003 (ip), vehicle: saline) was 109 % of control, the T/C (dose: 15.0 mg/kg/injection, schedule: Q04DX003 (ip), vehicle: saline) was 107 % of control and the T/C (dose: 22.0 mg/kg/injection, schedule: Q04DX003 (ip), vehicle: saline) was 111 % of control. For the same compound, the T/C (dose: 33.0 mg/kg/injection, schedule: Q04DX003 (ip), vehicle: saline) was 116 % of control.

`O=C(CBr)N1c2ccccc2Sc2ccc3ccccc3c21` was tested, and the T/C [4] was 110 % of control and 120 % of control and the T/C [5] was 122 % of control.

For `CC1C(C)(C)P(C)(=O)C1(C)C` (stereo not given), the T/C (dose: 100.0 mg/kg/injection, schedule: Q04DX002 (ip), vehicle: saline with Tween-80) was 89 % of control and the T/C (dose: 200.0 mg/kg/injection, schedule: Q04DX002 (ip), vehicle: saline with Tween-80) was 97 % of control.

`O=C(c1ccc(-c2ccccc2)cc1)C1C(c2ccccc2)N1C1CCCCC1` (stereo not given) was tested, and the T/C [6] was 88 % of control and the T/C [7] was 91 % of control.

`C[C@H]1C[C@@H]2[C@H]([C@@H](O)C[C@@]3(C)[C@H]2CC[C@]3(O)C(=O)CO)[C@@]2(C)C=CC(=O)C=C12` was tested, and the T/C [5] was 100 % of control, the T/C (dose: 66.0 mg/kg/injection, schedule: Q01DX009 (ip), vehicle: saline with Tween-80) was 95 % of control and the T/C [8] was 100 % of control. The T/C [9] was 106 % of control and 112 % of control, the T/C (dose: 132.0 mg/kg/injection, schedule: Q04DX003 (ip), vehicle: saline with Tween-80) was 109 % of control and the T/C (dose: 150.0 mg/kg/injection, schedule: Q01DX009 (ip), vehicle: saline with Tween-80) was 90 % of control. The T/C [10] was 97 % of control, the T/C [11] was 108 % of control and 109 % of control and the T/C (dose: 300.0 mg/kg/injection, schedule: Q04DX003 (ip), vehicle: saline with Tween-80) was 95 % of control. For the same compound, the T/C [12] was 104 % of control and 108 % of control.

For `CCCCCCCCCCCOC(=O)c1ccc(O)cc1`, the T/C [13] was 98 % of control, the T/C [4] was 102 % of control and the T/C [5] was 105 % of control and 106 % of control. For the same compound, the T/C [8] was 103 % of control.

In the case of `CC12CCC(Br)C(C)(C)C1C(O)C=C1C(=O)OCC1O2` (stereo not given), the T/C (dose: 4.0 mg/kg/injection, schedule: Q01DX005 (ip), vehicle: Klucel (hydroxypropylcellulose) (HPC)) is reported as 102 % of control, the T/C (dose: 8.0 mg/kg/injection, schedule: Q01DX005 (ip), vehicle: Klucel (hydroxypropylcellulose) (HPC)) is reported as 96 % of control and the T/C (dose: 16.0 mg/kg/injection, schedule: Q01DX005 (ip), vehicle: Klucel (hydroxypropylcellulose) (HPC)) is reported as 102 % of control. The T/C (dose: 32.0 mg/kg/injection, schedule: Q01DX005 (ip), vehicle: Klucel (hydroxypropylcellulose) (HPC)) was 102 % of control.

In the case of `CC1(C)C(=O)N(Cl)C(=O)N1Cl`, the T/C (dose: 6.25 mg/kg/injection, schedule: Q01DX005 (ip), vehicle: Klucel (hydroxypropylcellulose) (HPC)) is reported as 100 % of control and 95 % of control, the T/C (dose: 6.25 mg/kg/injection, schedule: Q01DX005 (ip), vehicle: saline with Tween-80) is reported as 92 % of control and the T/C (dose: 12.5 mg/kg/injection, schedule: Q01DX005 (ip), vehicle: Klucel (hydroxypropylcellulose) (HPC)) is reported as 102 % of control and 101 % of control. The T/C (dose: 12.5 mg/kg/injection, schedule: Q01DX005 (ip), vehicle: saline with Tween-80) was 87 % of control, the T/C (dose: 16.5 mg/kg/injection, schedule: Q01DX009 (ip), vehicle: saline with Tween-80) was 104 % of control and the T/C (dose: 25.0 mg/kg/injection, schedule: Q01DX005 (ip), vehicle: Klucel (hydroxypropylcellulose) (HPC)) was 106 % of control. For the same compound, the T/C (dose: 25.0 mg/kg/injection, schedule: Q01DX005 (ip), vehicle: saline with Tween-80) was 97 % of control.

`COc1ccc(C(=O)CC2(O)C(=O)Nc3ccccc32)cc1` (stereo not given) was tested, and the T/C [1] was 100 % of control, the T/C [2] was 102 % of control and the T/C [3] was 100 % of control.

`COc1c(-c2ccccc2)c(=O)n2c3cc(C)c(C)cc3n(C)c2c1C#N` was tested, and the T/C [14] was 100 % of control, the T/C [15] was 86 % of control and the T/C [16] was 89 % of control.

`O=NN(CCOCCCl)C(=O)NC1CCCCC1` was tested, and the T/C (dose: 6.25 mg/kg/injection, schedule: Q01DX009 (ip), vehicle: water) was 100 % of control, the T/C (dose: 12.5 mg/kg/injection, schedule: Q01DX009 (ip), vehicle: water) was 100 % of control and the T/C (dose: 25.0 mg/kg/injection, schedule: Q01DX009 (ip), vehicle: water) was 107 % of control. For the same compound, the T/C (dose: 200.0 mg/kg/injection, schedule: Q01DX009 (ip), vehicle: water) was 152 % of control.

`Cc1ccc(-c2cc(Cl)c3cc(S(=O)(=O)F)ccc3n2)cc1` was tested, and the T/C [8] was 104 % of control, the T/C [9] was 100 % of control and the T/C [10] was 100 % of control. The T/C [11] was 100 % of control, the T/C (dose: 400.0 mg/kg/injection, schedule: Q01DX009 (ip), vehicle: saline with Tween-80) was 104 % of control and the T/C [12] was 100 % of control.

In the case of `COc1ccc2c(NCCCCCCCCNc3c4ccc(Cl)cc4nc4cc(OC)ccc34)c3ccc(Cl)cc3nc2c1`, the T/C (dose: 0.63 mg/kg/injection, schedule: Q01DX009 (ip), vehicle: other) is reported as 117 % of control, the T/C (dose: 1.25 mg/kg/injection, schedule: Q01DX009 (ip), vehicle: other) is reported as 100 % of control and the T/C (dose: 2.5 mg/kg/injection, schedule: Q01DX009 (ip), vehicle: other) is reported as 96 % of control. For the same compound, the T/C (dose: 5.0 mg/kg/injection, schedule: Q01DX009 (ip), vehicle: other) was 105 % of control, the T/C (dose: 10.0 mg/kg/injection, schedule: Q01DX009 (ip), vehicle: other) was 100 % of control and the T/C (dose: 20.0 mg/kg/injection, schedule: Q01DX009 (ip), vehicle: other) was 88 % of control.

With `O=C(Cc1nc2ccc([N+](=O)[O-])cc2nc1CC(=O)c1cccnc1)c1cccnc1` the T/C [14] was 97 % of control, the T/C [15] was 92 % of control and the T/C [16] was 90 % of control.

For `CNC(=O)c1nn(-c2ccccc2)c2oc(=O)cc(C)c12`, the T/C (dose: 50.0 mg/kg/injection, schedule: Q01DX005 (ip), vehicle: Klucel (hydroxypropylcellulose) (HPC)) was 95 % of control, the T/C (dose: 100.0 mg/kg/injection, schedule: Q01DX005 (ip), vehicle: Klucel (hydroxypropylcellulose) (HPC)) was 87 % of control and the T/C (dose: 200.0 mg/kg/injection, schedule: Q01DX005 (ip), vehicle: Klucel (hydroxypropylcellulose) (HPC)) was 87 % of control.

For `[I][Hg][CH2]C1COCC([CH2][Hg][I])O1.[I][Hg][CH2]C1COCC([CH2][Hg][I])O1` (stereo not given), the T/C (dose: 3.13 mg/kg/injection, schedule: Q01DX009 (ip), vehicle: saline with Tween-80) was 109 % of control, the T/C (dose: 3.13 mg/kg/injection, schedule: Q04DX003 (ip), vehicle: saline with Tween-80) was 109 % of control and the T/C (dose: 6.25 mg/kg/injection, schedule: Q01DX009 (ip), vehicle: saline with Tween-80) was 113 % of control. The T/C (dose: 6.25 mg/kg/injection, schedule: Q04DX003 (ip), vehicle: saline with Tween-80) was 86 % of control, the T/C [13] was 118 % of control and the T/C (dose: 12.5 mg/kg/injection, schedule: Q04DX003 (ip), vehicle: saline with Tween-80) was 100 % of control.

In the case of `CC1(C)CC(C)(OC(=O)c2ccccc2Cl)N=N1` (stereo not given), the T/C (dose: 11.0 mg/kg/injection, schedule: Q01DX009 (ip), vehicle: other) is reported as 97 % of control, the T/C (dose: 12.5 mg/kg/injection, schedule: Q01DX009 (ip), vehicle: other) is reported as 107 % of control and the T/C (dose: 16.5 mg/kg/injection, schedule: Q01DX009 (ip), vehicle: other) is reported as 97 % of control. For the same compound, the T/C [6] was 108 % of control, the T/C (dose: 37.5 mg/kg/injection, schedule: Q01DX009 (ip), vehicle: other) was 116 % of control and the T/C (dose: 50.0 mg/kg/injection, schedule: Q01DX009 (ip), vehicle: other) was 103 % of control. The T/C [7] was 112 % of control and the T/C (dose: 200.0 mg/kg/injection, schedule: Q01DX009 (ip), vehicle: other) was 116 % of control.
